Values quoted from earlier work, collected in patent US11883378B2, “Hydrogel formulations and methods and devices for focal administration of the same” (Pykus Therapeutics, Inc., priority 2021, dated 2024).
Converted amounts (≈) assume the structure as drawn.

Sequence of VEGF (P15692 207-311 limits assumed): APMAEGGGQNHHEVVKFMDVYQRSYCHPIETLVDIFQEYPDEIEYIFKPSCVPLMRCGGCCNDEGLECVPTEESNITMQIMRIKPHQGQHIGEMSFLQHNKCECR

| solubility in water [µg/mL] | Compound | tolerability of intravitreal injection (VEGF; dose of 1.25 mg) | effective dose in the vitreous (VEGF; maintained by monthly repetitive intravitreal injections) [µg/mL] |
| --- | --- | --- | --- |
| ~1 (≈ 1.24 µM) | C=CC[C@@H]1/C=C(\C)C[C@H](C)C[C@H](OC)[C@H]2O[C@@](O)(C(=O)C(=O)N3CCCC[C@H]3C(=O)O[C@H](/C(C)=C/[C@@H]3CC[C@@H](O)[C@H](OC)C3)[C@H](C)[C@@H](O)CC1=O)[C@H](C)C[C@@H]2OC [Tacrolimus] |  |  |
|  | Bevacizumab: anti-VEGF monoclonal antibody (large protein) with a molecular weight of ~150 kD | well tolerated | ~1 |
